Experimental data taken from article PMC9656319, “Pharmacokinetics and Tissue Distribution of Coumarins from Tagetes lucida in an LPS-Induced Neuroinflammation Model” (Plants, 2022).
Blank lines part the entries; values can stand above or below the molecule they belong to.

Legend:
[1] = Pharmacokinetic study in plasma after oral hexanic extract of Tagetes lucida, healthy and LPS-damaged mice; assay type: in vivo, ICR mice; conditions: for Cmax / AUC(0-inf) / MRT / Tmax / half-life / AUC(0-t): ICR, mouse, po, 10 mg/kg; for Cmax / AUC(0-inf) / MRT / Tmax / half-life / AUC(0-t) / Cl/F: plasma, 10 mg/kg oral hexanic extract, mean ± SEM (n = 5); for Cmax: non-compartmental; for AUC(0-t): to 6 h
Procedure: The optimized HPLC-validated method for the quantification of coumarins present in the hexane extract of T. lucida was used to evaluate the concentration profiles over time in the plasma, brain, kidney, and spleen biological matrices after an oral administration of 10 mg/kg of the extract.
Blood samples were obtained from the retro-orbital sinus of mice and collected in heparinized tubes. Plasma was separated by centrifugation at 3500 rpm for 5 min and stored in new Eppendorf tubes at −70 °C, until further processing.
(§1) One hundred microliters of plasma and organs samples, spiked with calibration and QC concentration or samples from the pharmacokinetic study, were mixed with 300 µL of acetonitrile containing the IS at 10 µg/mL for protein precipitation, and vortexed for 3 min. Then, 200 µL of dichloromethane were added, for liquid–liquid extraction of the bioactive compounds, and vortexed for 5 min. The mixture was centrifuged at 14,000 rpm for 10 min, and the extracted organic layers were placed in new tubes, until completely dry at room temperature. For quantitative analysis, samples were resuspended in 100 µL of methanol, transferred to sampling vials, and injected into the chromatographic system, described below.
A pharmacokinetic study was carried out in sixty mice, divided in six subgroups, according to sample collection times. An acute inflammation process by the intraperitoneal (i.p.) administration of LPS at 2 mg/kg was induced in half of the mice per group, while the other half received an i.p. injection of saline solution. Ten min after the damage was induced, the mice were administered with an oral dose of 10 mg/kg of the bioactive fraction dissolved in a 1% Tween-20 aqueous solution. Blood and tissue samples were obtained and processed at 0, 0.25, 0.75, 1.5, 2, 4, and 6 h post-dosing, as indicated in the “Samples collection” and “Plasma and tissue samples processing” sections.
Pharmacokinetic parameters of PE, SC, DF, HR, and PU in plasma were calculated by PKSolver software.

[2] = Tissue distribution in the brain after oral hexanic extract of Tagetes lucida, healthy and LPS-administrated mice; assay type: in vivo, ICR mice; conditions: after the initial absorption process
Procedure: After blood sampling, the mice were sacrificed in a chamber with chloroform by an overdose of anesthesia. The brain, kidney, and spleen were quickly removed and rinsed with saline solution, fresh weight was recorded, and immediately placed on ice. Subsequently, the organs were freeze-dried, grounded, and weighted. The lyophilized organs were individually suspended in methanol in a 1:1 volume: dry weight ratio for 24 h, then sonicated for 5 min and centrifuged at 14,000 rpm for 7 min. The supernatants were recovered in clean tubes and stored at −70 °C until their use.
as §1
A pharmacokinetic study was carried out in sixty mice, divided in six subgroups, according to sample collection times. An acute inflammation process by the intraperitoneal (i.p.) administration of LPS at 2 mg/kg was induced in half of the mice per group, while the other half received an i.p. injection of saline solution. Ten min after the damage was induced, the mice were administered with an oral dose of 10 mg/kg of the bioactive fraction dissolved in a 1% Tween-20 aqueous solution. […]
To evaluate the distribution in the tissues, bioactive coumarins were quantified in the lyophilized organs, and concentrations were adjusted to the volumes of liquid obtained by the difference between the dry and fresh weights of each tissue to simulate a distribution approximation of the compounds by tissue system.

[3] = Stability of the analytes in spiked plasma, brain, kidney and spleen matrices (autosampler, long-term, freeze-thaw); assay type: physicochemical, mice; conditions: for Stability Autosampler RE (%): processed samples in autosampler vials 24 h room temperature; for Stability Freeze-Thaw RE (%): three cycles (−4 °C to 25 °C); for Stability Long-Term RE (%): −70 °C for 30 days
Procedure: The stability of the compounds obtained from each enriched matrices at the QC concentrations was evaluated under different conditions that covered the processing, handling, and storage phases that could be developed throughout the study.
Individual stock solutions of PE, SC, DF, HR, PU, and rutin (IS) were prepared separately in methanol (1 mg/mL) and stored at −4 °C until use. From the stocks, a working solution in methanol was prepared at a concentration of 200 µg/mL of each coumarin. Blank plasma or organs supernatant samples (80 µL) were spiked with 20 µL of serial dilutions of working solution to obtain calibration curves ranging between 0.156, 0.312, 0.625, 1.25, 2.5, 5, 10, 20, and 40 µg/mL of each coumarin. Quality control (QC) samples were prepared at three levels of 0.3 (low), 3 (medium), and 30 (high) µg/mL for each coumarin.
The stability of the analytes in plasma, brain, kidneys, and spleen was evaluated by the analyzed concentrations of QC subjected to three different conditions. Short-term stability was determined by analysis of samples processed in the autosampler vials at 24 h at room temperature. Long-term stability was tested on samples stored at −70 °C for 30 days. Freeze-thaw stability was determined after three cycles (−4 °C to 25 °C) on three consecutive days.

[4] = LPS-damaged ICR mice (LPS 2 mg/kg i.p.)

time at which the highest concentration in the brain tissue is reached [2]: 15 min
Stability Autosampler RE (%) ([3]; brain, nominal 0.3 µg/mL): -2.37%
Stability Freeze-Thaw RE (%) ([3]; brain, nominal 0.3 µg/mL): -1.15%
Stability Long-Term RE (%) ([3]; brain, nominal 0.3 µg/mL): -0.63%
Stability Autosampler RE (%) ([3]; brain, nominal 3.0 µg/mL): -0.34%
Stability Freeze-Thaw RE (%) ([3]; brain, nominal 3.0 µg/mL): -2.34%
Stability Long-Term RE (%) ([3]; brain, nominal 3.0 µg/mL): -3.44%
Stability Autosampler RE (%) ([3]; brain, nominal 30.0 µg/mL): 4.05%
Stability Freeze-Thaw RE (%) ([3]; brain, nominal 30.0 µg/mL): -1.25%
Stability Long-Term RE (%) ([3]; brain, nominal 30.0 µg/mL): -3.82%
Stability Autosampler RE (%) ([3]; kidney, nominal 0.3 µg/mL): 7.06%
Stability Freeze-Thaw RE (%) ([3]; kidney, nominal 0.3 µg/mL): 2.26%
Stability Long-Term RE (%) ([3]; kidney, nominal 0.3 µg/mL): 3.02%
Stability Autosampler RE (%) ([3]; kidney, nominal 3.0 µg/mL): 3.99%
Stability Freeze-Thaw RE (%) ([3]; kidney, nominal 3.0 µg/mL): 0.91%
Stability Long-Term RE (%) ([3]; kidney, nominal 3.0 µg/mL): 2.69%
Stability Autosampler RE (%) ([3]; kidney, nominal 30.0 µg/mL): 1.61%
Stability Freeze-Thaw RE (%) ([3]; kidney, nominal 30.0 µg/mL): 1.12%
Stability Long-Term RE (%) ([3]; kidney, nominal 30.0 µg/mL): 7.34%
Stability Autosampler RE (%) ([3]; plasma, nominal 0.3 µg/mL): -4.00%
Stability Freeze-Thaw RE (%) ([3]; plasma, nominal 0.3 µg/mL): 2.80%
Stability Long-Term RE (%) ([3]; plasma, nominal 0.3 µg/mL): -6.86%
Stability Autosampler RE (%) ([3]; plasma, nominal 3.0 µg/mL): 11.12%
Stability Freeze-Thaw RE (%) ([3]; plasma, nominal 3.0 µg/mL): -2.01%
Stability Long-Term RE (%) ([3]; plasma, nominal 3.0 µg/mL): -4.44%
Stability Autosampler RE (%) ([3]; plasma, nominal 30.0 µg/mL): 8.22%
Stability Freeze-Thaw RE (%) ([3]; plasma, nominal 30.0 µg/mL): -5.55%
Stability Long-Term RE (%) ([3]; plasma, nominal 30.0 µg/mL): -5.20%
Stability Autosampler RE (%) ([3]; spleen, nominal 0.3 µg/mL): -5.98%
Stability Freeze-Thaw RE (%) ([3]; spleen, nominal 0.3 µg/mL): 2.50%
Stability Long-Term RE (%) ([3]; spleen, nominal 0.3 µg/mL): 1.51%
Stability Autosampler RE (%) ([3]; spleen, nominal 3.0 µg/mL): -10.42%
Stability Freeze-Thaw RE (%) ([3]; spleen, nominal 3.0 µg/mL): 4.42%
Stability Long-Term RE (%) ([3]; spleen, nominal 3.0 µg/mL): 3.67%
Stability Autosampler RE (%) ([3]; spleen, nominal 30.0 µg/mL): -1.02%
Stability Freeze-Thaw RE (%) ([3]; spleen, nominal 30.0 µg/mL): 2.38%
Stability Long-Term RE (%) ([3]; spleen, nominal 30.0 µg/mL): 2.78%
SMILES: COc1cc2ccc(=O)oc2cc1OCC=C(C)C [PE, 7-O-prenylscopoletin]
Cmax [1, 4]: 1770 ± 310 ng/mL
AUC(0-inf) ([1]; LPS-damaged ICR mice): 6370 ± 1200 ng·h/mL
MRT ([1]; LPS-damaged ICR mice): 6.96 ± 1.92 h
Tmax ([1]; LPS-damaged ICR mice): 0.85 ± 0.28 h
half-life ([1]; LPS-damaged ICR mice): 4.48 ± 1.31 h
AUC(0-t) ([1]; LPS-damaged ICR mice): 3520 ± 100 ng·h/mL
AUC(0-inf) ([1]; healthy ICR mice): 1700 ± 310 ng·h/mL
MRT ([1]; healthy ICR mice): 3.04 ± 0.45 h
Tmax ([1]; healthy ICR mice): 1.55 ± 0.34 h
half-life ([1]; healthy ICR mice): 1.86 ± 0.55 h
Cmax ([1]; healthy ICR mice): 930 ± 290 ng/mL
AUC(0-t) ([1]; healthy ICR mice): 1560 ± 350 ng·h/mL
Cl/F ([1]; LPS-damaged ICR mice): 17.38 ± 2.25 (mg/kg)/(μg/mL)/h
Cl/F ([1]; healthy ICR mice): 65.83 ± 10.18 (mg/kg)/(μg/mL)/h

time at which the highest concentration in the brain tissue is reached [2]: 15 min
Stability Autosampler RE (%) ([3]; brain, nominal 0.3 µg/mL): 2.13%
Stability Freeze-Thaw RE (%) ([3]; brain, nominal 0.3 µg/mL): -6.54%
Stability Long-Term RE (%) ([3]; brain, nominal 0.3 µg/mL): 3.45%
Stability Autosampler RE (%) ([3]; brain, nominal 3.0 µg/mL): 1.80%
Stability Freeze-Thaw RE (%) ([3]; brain, nominal 3.0 µg/mL): -4.49%
Stability Long-Term RE (%) ([3]; brain, nominal 3.0 µg/mL): -5.42%
Stability Autosampler RE (%) ([3]; brain, nominal 30.0 µg/mL): 4.57%
Stability Freeze-Thaw RE (%) ([3]; brain, nominal 30.0 µg/mL): -1.74%
Stability Long-Term RE (%) ([3]; brain, nominal 30.0 µg/mL): -4.61%
Stability Autosampler RE (%) ([3]; kidney, nominal 0.3 µg/mL): 7.10%
Stability Freeze-Thaw RE (%) ([3]; kidney, nominal 0.3 µg/mL): 3.61%
Stability Long-Term RE (%) ([3]; kidney, nominal 0.3 µg/mL): 5.54%
Stability Autosampler RE (%) ([3]; kidney, nominal 3.0 µg/mL): 5.21%
Stability Freeze-Thaw RE (%) ([3]; kidney, nominal 3.0 µg/mL): 2.01%
Stability Long-Term RE (%) ([3]; kidney, nominal 3.0 µg/mL): 8.68%
Stability Autosampler RE (%) ([3]; kidney, nominal 30.0 µg/mL): 1.66%
Stability Freeze-Thaw RE (%) ([3]; kidney, nominal 30.0 µg/mL): -1.02%
Stability Long-Term RE (%) ([3]; kidney, nominal 30.0 µg/mL): 6.46%
Stability Autosampler RE (%) ([3]; plasma, nominal 0.3 µg/mL): -6.02%
Stability Freeze-Thaw RE (%) ([3]; plasma, nominal 0.3 µg/mL): -9.54%
Stability Long-Term RE (%) ([3]; plasma, nominal 0.3 µg/mL): -8.22%
Stability Autosampler RE (%) ([3]; plasma, nominal 3.0 µg/mL): -11.68%
Stability Freeze-Thaw RE (%) ([3]; plasma, nominal 3.0 µg/mL): -9.78%
Stability Long-Term RE (%) ([3]; plasma, nominal 3.0 µg/mL): -10.56%
Stability Autosampler RE (%) ([3]; plasma, nominal 30.0 µg/mL): -9.86%
Stability Freeze-Thaw RE (%) ([3]; plasma, nominal 30.0 µg/mL): -5.10%
Stability Long-Term RE (%) ([3]; plasma, nominal 30.0 µg/mL): -4.81%
Stability Autosampler RE (%) ([3]; spleen, nominal 0.3 µg/mL): -0.09%
Stability Freeze-Thaw RE (%) ([3]; spleen, nominal 0.3 µg/mL): -8.53%
Stability Long-Term RE (%) ([3]; spleen, nominal 0.3 µg/mL): -6.92%
Stability Autosampler RE (%) ([3]; spleen, nominal 3.0 µg/mL): -4.98%
Stability Freeze-Thaw RE (%) ([3]; spleen, nominal 3.0 µg/mL): 2.88%
Stability Long-Term RE (%) ([3]; spleen, nominal 3.0 µg/mL): 7.56%
Stability Autosampler RE (%) ([3]; spleen, nominal 30.0 µg/mL): -2.63%
Stability Freeze-Thaw RE (%) ([3]; spleen, nominal 30.0 µg/mL): 2.27%
Stability Long-Term RE (%) ([3]; spleen, nominal 30.0 µg/mL): 4.26%
SMILES: CC(C)=CCOc1ccc2ccc(=O)oc2c1 [PU, 7-O-prenylumbelliferone]
Cmax [1, 4]: 690 ± 70 ng/mL
AUC(0-inf) ([1]; LPS-damaged ICR mice): 2240 ± 260 ng·h/mL
MRT ([1]; LPS-damaged ICR mice): 2.68 ± 0.14 h
Tmax ([1]; LPS-damaged ICR mice): 1.05 ± 0.31 h
half-life ([1]; LPS-damaged ICR mice): 0.95 ± 0.1 h
AUC(0-t) ([1]; LPS-damaged ICR mice): 2220 ± 260 ng·h/mL
AUC(0-inf) ([1]; healthy ICR mice): 1520 ± 120 ng·h/mL
MRT ([1]; healthy ICR mice): 2.15 ± 0.11 h
Tmax ([1]; healthy ICR mice): 1.55 ± 0.23 h
half-life ([1]; healthy ICR mice): 0.92 ± 0.06 h
Cmax ([1]; healthy ICR mice): 560 ± 50 ng/mL
AUC(0-t) ([1]; healthy ICR mice): 1490 ± 110 ng·h/mL
time of concentration peak in plasma after administration of the extract ([1]; LPS-treated mice, Figure 3e): up to 4 h
Cl/F ([1]; LPS-damaged ICR mice): 46.95 ± 5.03 (mg/kg)/(μg/mL)/h
Cl/F ([1]; healthy ICR mice): 67.37 ± 5.33 (mg/kg)/(μg/mL)/h
